Laboratory results: the supplement of paper PMC10307832

Experiments:
Test in all cases: relative viability (nuclei count vs DMSO), 5 days (fraction); higher = more cells survive
[1] = compound: CN1C=C(C2=CC=CC=C21)/C=C\3/C4=C(C=CC=N4)NC3=O + COc1cc2c(Oc3ccc(NC(=O)C4(C(=O)Nc5ccc(F)cc5)CC4)cc3F)ccnc2cc1OCCCN1CCOCC1 [Foretinib] (partner 0.25 µM)
In short: (§1)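 Dosing by pin tool came one day after lung cancer cell lines were seeded in 1536-well plates, using either one drug or a fixed anchor-drug dose plus five library-drug doses (not always all listed) in √10 steps. After 5 days, nuclei were counted on 4× images. Relative viability is treated-well nuclei count divided by vehicle-well nuclei count, and values are medians of duplicate plates.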

Trametinib + Tozasertib = compound: CC(=O)Nc1cccc(-n2c(=O)n(C3CC3)c(=O)c3c(Nc4ccc(I)cc4F)n(C)c(=O)c(C)c32)c1 [Trametinib] + Cc1cc(Nc2cc(N3CCN(C)CC3)nc(Sc3ccc(NC(=O)C4CC4)cc3)n2)n[nH]1 [Tozasertib] (partner 0.1 µM)
In short: as §1

[2] = compound: CN1C=C(C2=CC=CC=C21)/C=C\3/C4=C(C=CC=N4)NC3=O + COc1cccc2cc(-c3nc([C@H]4CC[C@H](C(=O)O)CC4)n4ncnc(N)c34)[nH]c12 [OSI-027] (partner 0.5 µM)
In short: as §1

[3] = compound: CN1C=C(C2=CC=CC=C21)/C=C\3/C4=C(C=CC=N4)NC3=O + NC(=O)Nc1cc(-c2cccc(F)c2)sc1C(=O)N[C@H]1CCCNC1 [AZD7762] (partner 0.2 µM)
In short: as §1

Cell Line	relative viability ([1]; first compound 0.02 µM)	relative viability ([1]; first compound 0.06325 µM)	relative viability ([1]; first compound 0.2 µM)	relative viability ([1]; first compound 0.6325 µM)	relative viability ([1]; first compound 2 µM)	relative viability (Trametinib + Tozasertib; first compound 0.0025 µM)	relative viability (Trametinib + Tozasertib; first compound 0.007906 µM)	relative viability (Trametinib + Tozasertib; first compound 0.025 µM)	relative viability (Trametinib + Tozasertib; first compound 0.07906 µM)	relative viability (Trametinib + Tozasertib; first compound 0.25 µM)	relative viability ([2]; first compound 0.02 µM)	relative viability ([2]; first compound 0.06325 µM)	relative viability ([2]; first compound 0.6325 µM)	relative viability ([2]; first compound 2 µM)	relative viability ([3]; first compound 0.02 µM)	relative viability ([3]; first compound 0.6325 µM)	relative viability ([3]; first compound 2 µM)	relative viability ([3]; first compound 0.06325 µM)	relative viability ([2]; first compound 0.2 µM)	relative viability ([3]; first compound 0.2 µM)
Calu-6	0.818	0.893	0.727	0.779	0.834															
SW 900	0.961	0.702		0.866	0.723	0.579	0.547	0.724	0.511	0.412	0.601	0.49	0.6	0.703	0.512	0.555	0.591			
NCI-H650	1.05	0.938		1.02	1	0.733	0.774	0.621	0.569	0.329	0.628	0.515	0.529	0.506	1.05	1.2	0.965	0.939		
NCI-H460	1.09	0.967	1.05	0.986	0.975	0.267	0.262	0.278	0.152	0.0343	0.81	0.726	0.63	0.676	0.627	0.677	0.574	0.576	0.649	0.263
NCI-H2228	0.95	0.764			0.823	0.239	0.209	0.207	0.211	0.132	0.576	0.452		0.462						
NCI-H2085	1.1	0.843	0.998	1.02	1.02	0.721	0.598	0.551	0.561	0.621	0.897	0.717	0.716	0.67	0.97	0.956	0.947	1.03	0.597	0.968
HCC-366	0.934	1.01	0.886	0.916	0.896	0.117	0.0857	0.0884	0.07	0.0695	0.678	0.89	0.852	0.75	0.29	0.178	0.24	0.278	0.52	0.0805
EPLC-272H	0.564	0.677	0.603		0.663	0.207	0.203	0.212	0.149	0.266	0.219	0.29		0.309	0.321	0.132	0.174	0.244	0.269	
NCI-H1650	1.21	1.05	0.98	1.26	1.22	0.422	0.434	0.397	0.374	0.23	0.55	0.541	0.458	0.539					0.437	
NCI-H522						0.583	0.529	0.455	0.526	0.446	0.648	0.743	0.75	0.835	0.686	1.1	0.882	0.784	0.761	0.76
EBC-1	0.0992	0.108	0.0997	0.0962	0.0995															
IA-LM	1.28	1.01	1.12	1.19	1.23															
COR-L 105	1.09	0.993	0.834	0.957	0.952	0.287	0.387	0.338	0.31	0.223	1.01	0.897	0.746	0.724					0.591	
NCI-H1703	0.345	0.354	0.311	0.347	0.349										0.107	0.112	0.14	0.138		0.118
NCI-H2023	0.841	0.837		0.924	0.746	0.232	0.262	0.26	0.232	0.199	0.395	0.351	0.337	0.316					0.231	
A549	1.03	0.97	1.04	1.13	1.16															
HCC-44						0.897	0.519	0.801	0.594	0.228	0.478	0.486	0.455	0.457	0.937	1	0.956	1.02		0.94
NCI-H1623	0.838	0.878	0.701	0.712	0.755	0.355	0.364	0.299	0.256	0.314	0.371	0.404	0.38	0.379					0.359	
SK-LU-1	0.596	0.705	0.869	0.713	0.992	0.301	0.309	0.286	0.264	0.181	0.273	0.284	0.354	0.382					0.333	
NCI-H1563	1.04	0.897	0.955	0.943	0.901						0.741	0.75	0.778	0.75					0.743	
COR-L23	1.11	1.04	0.92	1.1	1.08	0.193	0.208	0.165	0.178	0.149	0.713	0.716	0.723	0.843					0.829	
NCI-H1792											0.72	0.71		0.464	0.943	0.518	0.693	0.702	0.768	0.376
NCI-H2009	1.22	1.19	1.19	1.24	1.24	0.689	0.489	0.378	0.302	0.244	0.684	0.616	0.688	0.642					0.668	
